Assay results reported in PMC6452685, “Lysyl-tRNA synthetase as a drug target in malaria and cryptosporidiosis” (Proceedings of the National Academy of Sciences of the …, 2019).
Read-outs that look alike come from different tables or passages of the source.

Tests used:
HsKRS = molecular target: T1, HsKRS (Homo sapiens, UniProt Q15046); assay: HsKRS SAR assay, luciferase ATP consumption (Kinase-Glo); type: biochemical
T1 construct: HsKRS (full-length) proteins; 6xHis (N); made in house; host or cells: E. coli Rosetta BL21(DE3), vector pAVA0421 (UW); template pET28a-KRS
T1 sequence (Q15046 whole entry): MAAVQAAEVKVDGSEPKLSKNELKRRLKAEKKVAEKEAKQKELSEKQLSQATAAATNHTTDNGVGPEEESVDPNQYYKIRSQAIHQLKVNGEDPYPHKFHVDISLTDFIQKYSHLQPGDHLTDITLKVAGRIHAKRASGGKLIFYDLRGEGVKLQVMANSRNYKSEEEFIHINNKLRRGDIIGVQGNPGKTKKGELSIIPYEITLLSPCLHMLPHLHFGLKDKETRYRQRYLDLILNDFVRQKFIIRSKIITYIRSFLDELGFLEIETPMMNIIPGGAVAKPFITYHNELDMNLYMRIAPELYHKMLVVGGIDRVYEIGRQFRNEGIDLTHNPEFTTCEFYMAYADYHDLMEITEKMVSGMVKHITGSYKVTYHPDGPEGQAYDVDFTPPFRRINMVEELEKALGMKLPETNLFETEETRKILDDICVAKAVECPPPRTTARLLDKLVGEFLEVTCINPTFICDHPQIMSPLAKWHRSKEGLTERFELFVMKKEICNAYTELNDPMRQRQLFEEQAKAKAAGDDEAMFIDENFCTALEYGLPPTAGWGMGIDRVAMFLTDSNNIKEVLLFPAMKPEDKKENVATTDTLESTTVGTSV
Description: We produced recombinant PfKRS1 (77–583 and 80–583), CpKRS (46-end), and HsKRS (full-length) proteins and developed biochemical assays based on the luciferase ATP consumption assay (Kinase-Glo; Promega) ([16]), which was suitable for the high-throughput screening, and the pyrophosphate generation assay (EnzChek) ([17]) format for kinetic characterization of the enzymes. The activities of recombinant enzymes were analyzed by monitoring only the first stage of the aminoacylation reaction. This reaction is suitable for high-throughput screening campaigns and makes the reaction more amenable for steady-state kinetic studies. By using the EnzChek assay, which monitors the production of pyrophosphate (when coupled with pyrophosphatase), Km values were obtained for PfKRS1, CpKRS, and HsKRS for ATP and L-lysine (Table 1 and SI Appendix, Fig. S1 and Table S1). […] This may be due to structural differences (see below) between the active sites of the parasite and human enzymes. […]
2.7 PfKR S1, CpKRS and HsKR S S AR Ass ay Usin g L ucife r ase ATP C onsumption ( Kinase Glo ®) Inhi bi ti on of KRS acti vity by cl adospori n and other compou nds was assayed i n t he buffered me di um.
Each as s ay w el l was compos ed of b uffer (as des cri bed i n Ta bl e S3), 10 µM l ysi ne and ei ther 8.1 nM PfKRS1, 8.1 nM CpKRS or 6.6 nM HsKRS. […] The react i on w a s initiated by the addition of 2 µM ATP. The plate was incubated with shaking at 90 rpm and 30°C for 120 mi n. […] Maximum and minimum signal controls were included in each reaction plate. […] Analysis and calculation of inhibitors IC50 values were performed using Graphpad® Prism software (GraphPad S oftware, San Diego, CA). […]

[1] = test system: Nanoluciferase-expressing C. parvum; assay: Inhibition of Nanoluciferase expressing C. parvum growth in HCT-8 cells; type: cell-based, Cryptosporidium parvum; details: read-out: Nluc Cp EC50
Description: […] ( UW ) Inhibition of C. parvum growth and EC50 det erm i nat i ons w ere perf ormed w i t h a Na nol uci feras e-expressing C. parvum parasi t e i n HC T-8 cel l s. Oocys ts were propag ated i n cal v es (Cryptosporidium Producti on La borato ry, School o f Ani mal and Comparati ve Bi omedi cal Sci ences, Universi ty of Ari zona) and i sol ated from stool s by sucrose suspensi on and cesi um chl ori de gradi ent. HCT-8 cel ls were seeded to a 384-well plate and allowed to grow for 72 h to reach 90-100% confluence at 37 °C in 5% CO2. Oocysts were activated by 10-15 mi n i ncubat i on i n 10% bl each (0. 6% s odi um hy pochl o ri t e) at room temperature and then washed wi th DPBS. 2000 oocysts per wel l were appl ied to 384-well pl at es wi t h RPM I-1640 medi um s up pl ement ed w i th 10% ho rs e s erum and 1% pe ni ci l li n/s t rept omy ci n at the same time as compound addition. The compound and the oocysts were left in place for the full 72 h g row t h t i me. The amount of l uci feras e-induced light emission was determined by lysing the cell monol ayer, addi ng Nan o-Glo® luciferase reagent (Promega, Madison, W I , USA), and readi ng o n a n EnVi s i on M ul t il abe l Pl at e Re ade r (P e rk i n El me r, Wal t ham, M A, USA). C ont rol s i ncl ude d i nfe ct e d w e lls with no addition of inhibitors and the background was taken as wells where no C. parvum was adde d.
The per cent ag e of g row t h versus infected ce lls with no inhibitor was calculated for each concentrati on of BKI an d the hal f maxi mal effecti ve concentrati on (EC50) v al ues were determi ned by a si gmoi dal dose response wi th vari abl e sl ope usi ng GraphPad Pri sm versi on 6.07 (GraphPa d Software, La Jol l a, Cal i forni a, USA). […]

[2] = Cryptosporidium parvum, HCT-8, C. parvum growth in HCT-8 cells

SMILES	IC50 (HsKRS) [nM]	EC50 ([1]; C. parvum growth in HCT-8 cells) [nM]	EC50 [1, 2] [nM]
C[C@H]1CCC[C@H](C[C@H]2Cc3cc(O)cc(O)c3C(=O)O2)O1 [Compound 1, cladosporin, reference compound]	> 2000	670	700
O=C(NCC1CCCCC1)c1cc(=O)c2ccccc2o1 [Compound 2]	> 2000	–	1200
O=C(NCC1CCCCC1)c1cc(=O)c2cc(F)ccc2o1 [Compound 3]	> 2000	–	810
O=C(NCC1(O)CCCCC1)c1cc(=O)c2cc(F)ccc2o1 [Compound 4]	740	–	140
O=C(NCC1(O)CCC(F)(F)CC1)c1cc(=O)c2cc(F)ccc2o1 [Compound 5]	1800	–	2500
